Source: US20200129922A1, “METHOD OF REDUCING CONCENTRATION OF FLUORINE-CONTAINING COMPOUND IN SAMPLE” (Samsung Electronics Co., Ltd., priority 2018, published 2020)

Experiments:
[1] = at 30° C.; cited from earlier work
[2] = Confirmation of solubility of CF4 for phosphonium ionic liquid (headspace CF4 by GC-MS); type: physicochemical; details: 5 ml ionic liquid in 60 ml serum bottle, 200 ppm CF4 in upper empty space, 24 hours shaking; control distilled water
Description: 5 ml of a phosphonium ionic liquid was put in a 60 ml glass serum bottle, and CF4 was supplied to the upper empty space at a concentration of 200 ppm based on the volume of the empty space. After air-tightening by closing a lid, the bottle was incubated for 24 hours under shaking. Then, the air in the upper empty space was collected, and a concentration of CF4 was measured using gas chromatography mass-spectrum (GC-MS). Distilled water of the same volume was used as a control group.
The CF4 removal rates in Tables 1 and 2 were calculated from the following Mathematical Equation 1:
CF4 removal rate=[(initial CF4 content−CF4 content after reaction)/initial CF4 content]×100 <Mathematical Equation 1>

Compound | solubility of CF4 in water [1] [µg/mL] | CF4 reduction rate (%) [2] [%]
FC(F)(F)F [CF4] | 17.1 | –
triethyl octyl phosphonium bis(trifluoromethylsulfonyl)imide [[P2228]^+ [NTf2]^−] | – | 13.9
trihexyl tetradecyl phosphonium bis(trifluoromethylsulfonyl)imide [[P66614]^+ [NTf2]^−] | – | 10.9
